The source of these data is PMC11548001, “Beware of N-Benzoyloxybenzamides” (Molecules, 2024).

Series [1] concerns the target T1, acid ceramidase (Homo sapiens, UniProt Q13510).
T1 construct: if using cell lysate, each well contained 7.45 µL assay buffer; endogenous in cells; host or cells: HEK293 cell lysate (supernatant after freeze-thaw and homogenisation)
T1 sequence (Q13510 22-395): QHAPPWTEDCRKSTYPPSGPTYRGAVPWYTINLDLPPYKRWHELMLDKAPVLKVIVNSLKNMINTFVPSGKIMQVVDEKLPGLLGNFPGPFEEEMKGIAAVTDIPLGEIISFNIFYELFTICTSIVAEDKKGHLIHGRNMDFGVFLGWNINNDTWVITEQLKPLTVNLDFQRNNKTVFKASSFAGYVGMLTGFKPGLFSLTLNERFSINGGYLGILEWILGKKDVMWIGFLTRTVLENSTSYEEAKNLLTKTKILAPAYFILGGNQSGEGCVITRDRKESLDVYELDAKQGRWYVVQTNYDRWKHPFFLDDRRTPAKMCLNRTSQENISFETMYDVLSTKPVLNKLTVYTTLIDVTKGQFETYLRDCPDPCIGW
In words: Preincubation acid ceramidase activity assay. Conditions: pre-incubated at 0, 1 and 3 h at IC50 concentration, 37°C. The series is classed as biochemical. An excerpt: A partially degraded sample was purified by reverse-phase chromatography to isolate the DMSO-addition species. Although only a small amount of material was isolated, ^1H NMR spectroscopic analysis was consistent with the proposed structure (Scheme 3). The ^1H NMR data, in particular, were in line with that reported for a related compound (3f, see Supplementary Material). Such reactivity has been reported between N-pivaloyloxybenzamides and sulfoxides in the presence of an iron catalyst. The decomposition reaction to form a sulfoximine reported in this paper should be of interest to the synthetic community as it proceeds cleanly at ambient temperature without the need for reagents nor a catalyst; however, further optimisation of the reaction is beyond the scope of this paper.
Cultured HEK293 cells were grown until 80-90% confluency, collected, and washed twice in PBS. Collected cell pellets were resuspended in 0.2 M sucrose solution and freeze-thawed three times before being homogenised using a syringe and 25 G needle. […] The supernatant was collected, and protein quantified using Bradford reagent. […]
To measure acid ceramidase activity, an assay previously described by Bedia et al., (2010) was miniaturised to a 384-well format. […] Fluorescence was measured using a microplate reader (PHERAstar FSX; BMG Labtech) at excitation and emission wavelengths of 350 nm and 450 nm […]

The target in series [2] is T1, acid ceramidase. In words: HTS acid ceramidase assay (modified reported assay, without Saposin D). In kind it is biochemical. An excerpt:
Despite continuing advances in structure-driven research, High-Throughput Screening (HTS) is still a valuable resource to find novel chemical starting points in drug discovery. Recently, the Medicines Discovery Institute initiated an HTS looking for small-molecule inhibitors of acid ceramidase, a lysosomal enzyme. […] This substantial increase in potency can be explained by the fact that to function properly, acid ceramidase requires a co-factor present in cells which was not present in the original HTS assay, Saposin D [4].

Series [3] deals with T1, acid ceramidase. In words: in-house cell lysate acid ceramidase inhibition assay (HEK293 cell lysate, RBM14-C12 substrate). In kind it is biochemical. Here is the method: Cultured HEK293 cells were grown until 80-90% confluency, collected, and washed twice in PBS. Collected cell pellets were resuspended in 0.2 M sucrose solution and freeze-thawed three times before being homogenised using a syringe and 25 G needle. Lysed cells were centrifuged at 17,000 g for 30 min at 4°C. The supernatant was collected, and protein quantified using Bradford reagent.
(§1) Acid ceramidase activity assay
(§2) To measure acid ceramidase activity, an assay previously described by Bedia et al., (2010) was miniaturised to a 384-well format. The enzymatic assay was carried out in black flat bottom 384-well plates. Briefly, if using cell lysate, each well contained 7.45 µL assay buffer (25 mM sodium acetate pH 4.5) and 0.05 µL 4 mM RBM14-C12 (Avanti, USA) in ethanol (20 µM final substrate concentration), 2 µg protein in 2.4 µL 0.2 M sucrose, and 0.1 µL compound (control wells contained 0.1 µL DMSO). If using purified acid ceramidase protein (Peak Proteins), the experimental set up was similar, but 100 nM protein was used, and the assay buffer contained 25 mM sodium acetate pH 4.5, 0.1% Pluronic F-127, 0.5 mM EGTA, 0.05% BSA, 1 mM TCEP. Blank wells contained the same reaction mixes but without the protein samples. The reaction started upon addition of the protein sample. The plate was incubated at 37°C for 3 h. The reaction was stopped upon addition of 10 µL fresh detection mix (2.5 mg/mL NaIO4 in 100 mM glycine/NaOH buffer pH 10.6) and the plate incubated for […]

Series [4] can be described thus: Stability in DMSO / d6-DMSO at room temperature (LCMS, 1H and 19F NMR). The series is classed as physicochemical. As to conditions: for stability of DMSO stock solution (in words): LCMS. The procedure: Key to this was running LCMS analysis on a d6-DMSO NMR sample that was left at room temperature for 6 weeks. Despite also degrading into the carboxylic acid 12, the mass of the other species was different by +6 Daltons compared to the non-deuterated sample. […] To monitor the speed of degradation, a fresh sample was analysed periodically by ^1H and ^19F NMR spectroscopy (Figure 4).

A short description of series [5]: Reactivity with the amino acid cysteine (LCMS). As to conditions: LCMS analysis. The series is classed as physicochemical. From the text:
Almost all reported small-molecule inhibitors of acid ceramidase are covalent in their mechanism of action by reaction with cysteine 143 [14, 15, 16, 17, 18, 19, 20, 21, 22]. In some cases, the covalent warhead itself is linked to promiscuity and intrinsic chemical instability. To probe whether 1 was chemically reactive in this way, a sample was stirred with the amino acid cysteine.

The target in series [6] is T1, acid ceramidase. Description: purified protein acid ceramidase inhibition assay. In kind it is biochemical. As to conditions: freshly synthesised sample. The procedure:
as §1, §2

Where [7] appears, read: cell lysate assay, supplied (HTS library) samples, read-out: IC50.

Regarding `O=C(NOC(=O)c1ccc(N2CCCCCC2)c([N+](=O)[O-])c1)c1ccc(OC(F)F)cc1` [compound 1], the “inhibition after pre-incubation (in words)” value in series [1] is given as “time-dependent inhibition pattern expected of a covalent inhibitor”. Also, the IC50 (as a rule, the concentration at which inhibition is half-maximal) in series [2] (library sample) worked out at 340 nM; in series [3] (cell lysate assay with addition of EDTA, read-out: IC50), 7 nM; in series [3] (cell lysate assay with addition of N,N,N′,N′-tetrakis(2-pyridinylmethyl)-1,2-ethanediamine (Zn2+ chelator), read-out: IC50), 8 nM; in series [3] (cell lysate assay, freshly synthesised sample, read-out: IC50), 3.2 nM; in series [3] (setting [7]), 11 nM; in series [6], 163 nM. Further, the “stability of DMSO stock solution (in words)” value in series [4] is listed as “slowly degraded into two species”. The estimated half-life entry in series [4] (d6-DMSO, room temperature, 1H and 19F NMR integrations against time) is given as “just over two days”. Further, the “stability when stirred with cysteine (in words)” value in series [5] was “slowly decomposed into two main chemical species”.
As to `CC(C)(C)c1ccc(C(=O)NOC(=O)c2ccc(Cl)c(Cl)c2)cc1` [compound 2], in series [2] (Figure 1), the “inhibition (in words)” value is given as “moderate inhibition”. The half-maximal inhibitory concentration (IC50) in series [3] (setting [7]) is 237 nM.
Regarding `O=C=Nc1ccc(OC(F)F)cc1` [compound 7], the 50% inhibitory concentration (IC50) in series [3] is about 100000 nM. Also, the “stability of DMSO stock solution (in words)” value in series [4] is on record as “fully hydrolysed to 8”.
Regarding `O=C(Nc1ccc(OC(F)F)cc1)Nc1ccc(OC(F)F)cc1` [compound 8], the IC50 in series [3] (cell lysate assay, read-out: IC50) was about 100000 nM.
`O=C(O)c1ccc(N2CCCCCC2)c([N+](=O)[O-])c1` [compound 12]: the “activity (in words)” value in series [3] (cell lysate assay) is “inactive”.
Same read-out and setting: under `CS(C)(=O)=NC(=O)c1ccc(OC(F)F)cc1` [compound 13] stands “no activity”.
